Measured values as given in patent US8481497B2, “Therapeutic agent for cancer, and method for treatment of cancer” (Sapporo Medical University, priority 2007, dated 2013).

Key:
[1] = test system: FGFR1 in KMS12BM cells; assay: FGFR1 expression at mRNA level in multiple myeloma cell line by DNA array; type: cell-based; conditions: 1 micro M decitabine (72 hours) and/or 0.5 micro g/mL ADR (24 hours)
Method: Using a DNA array, 1 micro M decitabine and/or 0.5 micro g/mL ADR was administered to KMS12BM cells and a change in expression of FGFR1 at the mRNA level was examined 72 hours after administration of decitabine and 24 hours after administration of ADR. In the graph, the expression level ratio relative to the expression level in the cell line to which no drug was administered is shown on the vertical axis. In the graph, the decitabine administration group is shown by Aza.

[2] = test system: FGFR1; conditions: human hepatic stellate cells; cited from earlier work

Row | Molecule | expression level of FGFR1 at the mRNA level [1] | expression of FGFR1 [2]
1 | COc1cccc2c1C(=O)c1c(O)c3c(c(O)c1C2=O)C[C@@](O)(C(=O)CO)C[C@@H]3O[C@H]1C[C@H](N)[C@H](O)[C@H](C)O1 [ADR, adriamycin] | increased | –
2 | interferon-gamma: type II interferon, a cytokine (protein, UniProt P01579 24-161, looked up) Interferon gamma: QDPYVKEAENLKKYFNAGHSDVADNGTLFLGILKNWKEESDRKIMQSQIVSFYFKLFKNFKDDQSIQKSVETIKEDMNVKFFNSNKKKRDDFEKLTNYSVTDLNVQRKAIHELIQVMAELSPAAKTGKRKRSQMLFRG | – | reduces
